Laboratory results published in PubChem BioAssay (NCI).
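GI50 marks 50% less growth. TGI: total growth inhibition.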

What was measured:
Assay in all cases: DTP human tumour cell line panel, 384-well format
HCT-116 colon = system: HCT-116 colon
HS 578T breast = system: HS 578T breast
COLO 205 colon = system: COLO 205 colon
NCI-H522 lung = system: NCI-H522 lung
SF-539 CNS = system: SF-539 CNS
K-562 leukemia = system: K-562 leukemia
OVCAR-8 ovarian = system: OVCAR-8 ovarian
MOLT-4 leukemia = system: MOLT-4 leukemia
SN12C renal = system: SN12C renal
CAKI-1 renal = system: CAKI-1 renal
UACC-62 melanoma = system: UACC-62 melanoma
CCRF-CEM leukemia = system: CCRF-CEM leukemia
U251 glioblastoma = system: U251 glioblastoma
MDA-MB-468 breast = system: MDA-MB-468 breast
OVCAR-3 ovarian = system: OVCAR-3 ovarian
HL-60(TB) leukemia = system: HL-60(TB) leukemia
T-47D breast = system: T-47D breast
IGROV1 ovarian = system: IGROV1 ovarian
BT-549 breast = system: BT-549 breast
SW-620 colon = system: SW-620 colon
NCI-H226 lung = system: NCI-H226 lung
NCI-H23 lung = system: NCI-H23 lung
HOP-62 NSCLC = system: HOP-62 NSCLC
NCI-H322M lung = system: NCI-H322M lung
786-0 renal = system: 786-0 renal
UACC-257 melanoma = system: UACC-257 melanoma
SK-MEL-5 melanoma = system: SK-MEL-5 melanoma
TK-10 renal = system: TK-10 renal
NCI-H460 NSCLC = system: NCI-H460 NSCLC
MDA-MB-435 melanoma = system: MDA-MB-435 melanoma
RPMI-8226 leukemia = system: RPMI-8226 leukemia
PC-3 prostate = system: PC-3 prostate
UO-31 renal = system: UO-31 renal
SF-268 CNS = system: SF-268 CNS
EKVX NSCLC = system: EKVX NSCLC
SK-OV-3 ovarian = system: SK-OV-3 ovarian
MDA-MB-231 breast = system: MDA-MB-231 breast
OVCAR-4 ovarian = system: OVCAR-4 ovarian
MALME-3M melanoma = system: MALME-3M melanoma
HCC-2998 colon = system: HCC-2998 colon
LOX IMVI melanoma = system: LOX IMVI melanoma
DU-145 prostate = system: DU-145 prostate
NCI/ADR-RES ovarian = system: NCI/ADR-RES ovarian
SK-MEL-28 melanoma = system: SK-MEL-28 melanoma
MCF7 breast = system: MCF7 breast
ACHN renal = system: ACHN renal
A549 NSCLC = system: A549 NSCLC
SR leukemia = system: SR leukemia
SF-295 CNS = system: SF-295 CNS
HCT-15 colon = system: HCT-15 colon
RXF 393 renal = system: RXF 393 renal

## COc1ccc(/C=C\c2cc(OC)c(OC)c(OC)c2)cc1NC(=O)[C@@H](N)CO
HCT-116 colon
  GI50: < 10 nM
  TGI: 103 nM
HS 578T breast
  GI50: < 10 nM
  TGI: < 10 nM
COLO 205 colon
  GI50: < 10 nM
  TGI: < 10 nM
NCI-H522 lung
  GI50: < 10 nM
  TGI: < 10 nM
SF-539 CNS
  GI50: < 10 nM
  TGI: 27.7 nM
K-562 leukemia
  GI50: < 10 nM
  TGI: 12.3 nM
OVCAR-8 ovarian
  GI50: 10.4 nM
  TGI: 35.9 nM
MOLT-4 leukemia
  GI50: < 10 nM
  TGI: < 10 nM
SN12C renal
  GI50: < 10 nM
  TGI: 11900 nM
CAKI-1 renal
  GI50: < 10 nM
  TGI: > 100000 nM
UACC-62 melanoma
  GI50: < 10 nM
  TGI: > 100000 nM
CCRF-CEM leukemia
  GI50: < 10 nM
  TGI: < 10 nM
U251 glioblastoma
  GI50: < 10 nM
  TGI: 17900 nM
MDA-MB-468 breast
  GI50: 13.3 nM
  TGI: 29.7 nM
OVCAR-3 ovarian
  GI50: < 10 nM
  TGI: 20.7 nM
HL-60(TB) leukemia
  GI50: < 10 nM
  TGI: < 10 nM
T-47D breast
  GI50: < 10 nM
  TGI: 68600 nM
IGROV1 ovarian
  GI50: < 10 nM
  TGI: 35900 nM
BT-549 breast
  GI50: < 10 nM
  TGI: 25.2 nM
SW-620 colon
  GI50: < 10 nM
  TGI: > 100000 nM
NCI-H226 lung
  GI50: < 10 nM
  TGI: 25.3 nM
NCI-H23 lung
  GI50: < 10 nM
  TGI: 16.3 nM
HOP-62 NSCLC
  GI50: < 10 nM
  TGI: 196 nM
NCI-H322M lung
  GI50: < 10 nM
  TGI: > 100000 nM
786-0 renal
  GI50: < 10 nM
  TGI: 58.2 nM
UACC-257 melanoma
  GI50: < 10 nM
  TGI: > 100000 nM
SK-MEL-5 melanoma
  GI50: < 10 nM
  TGI: < 10 nM
TK-10 renal
  GI50: < 10 nM
  TGI: > 100000 nM
NCI-H460 NSCLC
  GI50: 17.3 nM
  TGI: 36 nM
MDA-MB-435 melanoma
  GI50: < 10 nM
  TGI: < 10 nM
RPMI-8226 leukemia
  GI50: < 10 nM
  TGI: < 10 nM
PC-3 prostate
  GI50: < 10 nM
  TGI: > 100000 nM
UO-31 renal
  GI50: < 10 nM
  TGI: > 100000 nM
SF-268 CNS
  GI50: < 10 nM
  TGI: 78.5 nM
EKVX NSCLC
  GI50: < 10 nM
  TGI: > 100000 nM
SK-OV-3 ovarian
  GI50: < 10 nM
  TGI: 12000 nM
MDA-MB-231 breast
  GI50: < 10 nM
  TGI: > 100000 nM
OVCAR-4 ovarian
  GI50: 13.7 nM
  TGI: > 100000 nM
MALME-3M melanoma
  GI50: < 10 nM
  TGI: > 100000 nM
HCC-2998 colon
  GI50: < 10 nM
  TGI: 29.7 nM
LOX IMVI melanoma
  GI50: 12.2 nM
  TGI: 80.3 nM
DU-145 prostate
  GI50: < 10 nM
  TGI: 70.1 nM
NCI/ADR-RES ovarian
  GI50: < 10 nM
  TGI: < 10 nM
SK-MEL-28 melanoma
  GI50: < 10 nM
  TGI: > 100000 nM
MCF7 breast
  GI50: 24.4 nM
  TGI: 12700 nM
ACHN renal
  GI50: < 10 nM
  TGI: 52200 nM
A549 NSCLC
  GI50: < 10 nM
  TGI: > 100000 nM
SR leukemia
  GI50: < 10 nM
  TGI: < 10 nM
SF-295 CNS
  GI50: < 10 nM
  TGI: < 10 nM
HCT-15 colon
  GI50: < 10 nM
  TGI: 92.2 nM
RXF 393 renal
  GI50: < 10 nM
  TGI: < 10 nM
